Measurements taken from patent US20240197743A1, “WEE1 COMPOUND FOR TREATING UTERINE SEROUS CARCINOMA” (Recurium IP Holdings, LLC, priority 2021, published 2024).

Columns and labels:
[1] = tested on: multiple cell lines and xenograft models; assay: in vitro antitumor activity in multiple cell lines and xenograft models; format: cell-based
[2] = tested on: subjects with uterine serous carcinoma (USC); assay: ZN-c3-001 (NCT04158336) open label, multicenter, Phase I dose escalation and expansion study; subjects with USC at doses ≥300 mg QD; format: in vivo, human; details: for Spleen: baseline 21 mm; for Peritoneum: baseline 17.8 mm
Procedure: ZN-c3-001 (NCT04158336) is an open label, multicenter, Phase I dose escalation and expansion study evaluating the safety and clinical activity of ZN-c3 in subjects with advanced or metastatic solid tumors, refractory to standard therapy or for whom no standard therapy is available. Oral, daily ZN-c3 dosing was escalated from 25 mg to 450 mg once daily (QD), with a recommended phase 2 dose of 300 mg QD. Here we report preliminary safety and efficacy results for subjects with USC who received ZN-c3 at doses ≥300 mg QD.

[3] = subject #1, Follow-up 1 (February 2021)
[4] = subject #1, Follow-up 2 (April 2021)
[5] = subject #1, Follow-up 3 (June 2021)
[6] = subject #2, Follow-up 1 (March 2021)
[7] = subject #2, Follow-up 2 (April 2021)
[8] = subject #2, Follow-up 2 (April 2021), baseline 15 mm
[9] = subject #2, Follow-up 3 (June 2021)
[10] = subject #2, Follow-up 3 (June 2021), baseline 15 mm
[11] = subject #2, Follow-up 4 (July 2021)
[12] = subject #2, Follow-up 4 (July 2021), baseline 15 mm
[13] = subject #2, Follow-up 5 (August 2021)
[14] = subject #2, Follow-up 5 (August 2021), baseline 15 mm
[15] = subject #3, Follow-up 1 (May 2021)
[16] = subject #3, Follow-up 2 (July 2021)
[17] = subject #3, Follow-up 3 (August 2021)
[18] = subject #3, Follow-up 4 (September 2021)
[19] = subject #3, Follow-up 5 (November 2021)

C=CCn1c(=O)c2cnc(Nc3ccc(N4CCN(C)CC4)cc3)nc2n1-c1ccc2c(n1)[C@@](O)(CC)CC2 [ZN-c3, (R)-2-allyl-1-(7-ethyl-7-hydroxy-6,7-dihydro-5H-cyclopenta[b]pyridin-2-yl)-6-((4-(4-methylpiperazin-1-yl)phenyl)amino)-1,2-dihydro-3H-pyrazolo[3,4-d]pyrimidin-3-one]
antitumor activity [1]: significant in vitro antitumor activity | progressive disease as best overall response ([2]; 1 of 11 evaluable USC subjects, ≥300 mg QD): 9.1% | confirmed partial response as best overall response ([2]; 3 of 11 evaluable USC subjects, ≥300 mg QD): 27.3% | stable disease as best overall response ([2]; 7 of 11 evaluable USC subjects, ≥300 mg QD): 63.6% | Disease control rate (complete response, partial response, and stable disease) ([2]; 11 evaluable USC subjects, ≥300 mg QD): 90.9% | Grade ≥3 TRAEs occurring in ≥2 subjects ([2]; 14 USC subjects, ≥300 mg QD): anemia and thrombocytopenia | TRAEs grades 1-4 occurring in ≥3 subjects, by decreasing frequency ([2]; 14 USC subjects, ≥300 mg QD): nausea, vomiting, diarrhea, fatigue, decreased appetite, dehydration, and anemia | subjects reporting at least one treatment-related adverse event (TRAE) ([2]; 14 USC subjects, ≥300 mg QD): 12 of 14 | subjects with each Grade ≥3 hematologic event (anemia, thrombocytopenia) ([2]; 14 USC subjects, ≥300 mg QD): 2 subjects each | safety and tolerability ([2]; single agent, oral doses ≥300 mg QD): safe and well-tolerated | peritoneum imaging result (FIG. 1) ([2]; subject #1, 2nd restaging (April 2021) vs baseline (November 2020)): confirmed partial response | best response ([2]; subject #1, start 350 mg QD): Confirmed PR | reduction overall ([2]; subject #1, start 350 mg QD): 49% | time on the study drug until radiologic disease progression ([2]; subject #1, start 350 mg QD): 199 days | Target Lesions ([2]; subject #1, start 350 mg QD, Follow-up 1 (February 2021), baseline 24 mm): 15 mm | Tumor marker CA-125, minimum ([2]; subject #1, start 350 mg QD, after ~3 months of treatment, baseline 36 U/mL): 12 U/mL | New Lesions [2, 3]: No | Percentage of overall tumor reduction [2, 3]: −48.9% | Tumor Response by RECIST 1.1 [2, 3]: Partial | Spleen [2, 3]: 8 mm | Target Lesions Sum ([2]; subject #1, Follow-up 1 (February 2021), baseline 45 mm): 23 mm | New Lesions [2, 4]: No | Percentage of overall tumor reduction [2, 4]: −48.9% | Tumor Response by RECIST 1.1 [2, 4]: Partial | Spleen [2, 4]: 7 mm | Target Lesions ([2]; subject #1, Follow-up 2 (April 2021), baseline 24 mm): 16 mm | Target Lesions Sum ([2]; subject #1, Follow-up 2 (April 2021), baseline 45 mm): 23 mm | New Lesions [2, 5]: No | Percentage of overall tumor reduction [2, 5]: −48.9% | Tumor Response by RECIST 1.1 [2, 5]: Progressive | Spleen [2, 5]: 7 mm | Target Lesions ([2]; subject #1, Follow-up 3 (June 2021), baseline 24 mm): 16 mm | Target Lesions Sum ([2]; subject #1, Follow-up 3 (June 2021), baseline 45 mm): 23 mm | peritoneum imaging result (FIG. 2) ([2]; subject #2, 1st restaging (March 2021) vs baseline (January 2021)): partial response | best response ([2]; subject #2, start 300 mg QD): Confirmed PR | reduction overall ([2]; subject #2, start 300 mg QD): 43% | time on the study drug until radiologic disease progression ([2]; subject #2, start 300 mg QD): 230 days | Target Lesions ([2]; subject #2, start 300 mg QD, Follow-up 1 (March 2021), baseline 15 mm): 06 mm | Tumor marker CA-125 ([2]; subject #2, start 300 mg QD, after 2 months of treatment, baseline 440 U/mL): < 50 U/mL | New Lesions [2, 6]: No | Percentage of overall tumor reduction [2, 6]: −43% | Tumor Response by RECIST 1.1 [2, 6]: Partial Response | Lymph Node ([2]; subject #2, Follow-up 1 (March 2021), baseline 15 mm): 11 mm | Target Lesions Sum ([2]; subject #2, Follow-up 1 (March 2021), baseline 30 mm): 17 mm | New Lesions [2, 7]: No | Percentage of overall tumor reduction [2, 7]: −43% | Tumor Response by RECIST 1.1 [2, 7]: Partial Response | Lymph Node [2, 8]: 10 mm | Target Lesions [2, 8]: 07 mm | Target Lesions Sum ([2]; subject #2, Follow-up 2 (April 2021), baseline 30 mm): 17 mm | New Lesions [2, 9]: No | Percentage of overall tumor reduction, from baseline [2, 9]: −40% from baseline | Percentage of overall tumor reduction, from nadir [2, 9]: +6% from nadir | Tumor Response by RECIST 1.1 [2, 9]: Partial Response | Lymph Node [2, 10]: 10 mm | Target Lesions [2, 10]: 8 mm | Target Lesions Sum ([2]; subject #2, Follow-up 3 (June 2021), baseline 30 mm): 18 mm | New Lesions [2, 11]: No | Percentage of overall tumor reduction, from baseline [2, 11]: −30% from baseline | Percentage of overall tumor reduction, from nadir [2, 11]: +24% from nadir | Tumor Response by RECIST 1.1 [2, 11]: Partial Response | Lymph Node [2, 12]: 10 mm | Target Lesions [2, 12]: 11 mm | Target Lesions Sum ([2]; subject #2, Follow-up 4 (July 2021), baseline 30 mm): 21 mm | New Lesions [2, 13]: No | Percentage of overall tumor reduction, from baseline [2, 13]: −30% from baseline | Percentage of overall tumor reduction, from nadir [2, 13]: +24% from nadir | Tumor Response by RECIST 1.1 [2, 13]: Progressive Disease | Lymph Node [2, 14]: 10 mm | Target Lesions [2, 14]: 11 mm | Target Lesions Sum ([2]; subject #2, Follow-up 5 (August 2021), baseline 30 mm): 21 mm | peritoneum imaging result (FIG. 3) ([2]; subject #3, 5th restaging (November 2021) vs baseline (April 2021)): complete response | best response ([2]; subject #3, start 300 mg QD): Unconfirmed Complete Response | reduction overall ([2]; subject #3, start 300 mg QD): 100% | time on the study drug until clinical disease progression ([2]; subject #3, start 300 mg QD): 252 days | Target Lesions ([2]; subject #3, start 300 mg QD, Follow-up 1 (May 2021), baseline 36.6 mm): 21.7 mm | New Lesions [2, 15]: No | Percentage of overall tumor reduction [2, 15]: −32% | Tumor Response by RECIST 1.1 [2, 15]: Partial Response | Peritoneum [2, 15]: 15.3 mm | Target Lesions Sum ([2]; subject #3, Follow-up 1 (May 2021), baseline 54.4 mm): 37 mm | New Lesions [2, 16]: No | Percentage of overall tumor reduction [2, 16]: −67.8% | Tumor Response by RECIST 1.1 [2, 16]: Partial Response | Peritoneum ([2]; subject #3, Follow-up 2 (July 2021), (too small)): 5 mm (too small) | Target Lesions ([2]; subject #3, Follow-up 2 (July 2021), baseline 36.6 mm): 12.5 mm | Target Lesions Sum ([2]; subject #3, Follow-up 2 (July 2021), baseline 54.4 mm): 17.5 mm | New Lesions [2, 17]: No | Percentage of overall tumor reduction [2, 17]: −76.5% | Tumor Response by RECIST 1.1 [2, 17]: Partial Response | Peritoneum ([2]; subject #3, Follow-up 3 (August 2021), (too small)): 5 mm (too small) | Target Lesions ([2]; subject #3, Follow-up 3 (August 2021), baseline 36.6 mm): 7.8 mm | Target Lesions Sum ([2]; subject #3, Follow-up 3 (August 2021), baseline 54.4 mm): 12.8 mm | New Lesions [2, 18]: No | Percentage of overall tumor reduction [2, 18]: −82% | Tumor Response by RECIST 1.1 [2, 18]: Partial Response | Peritoneum ([2]; subject #3, Follow-up 4 (September 2021), (too small)): 5 mm (too small) | Target Lesions ([2]; subject #3, Follow-up 4 (September 2021), baseline 36.6 mm, (too small)): 5 mm (too small) | Target Lesions Sum ([2]; subject #3, Follow-up 4 (September 2021), baseline 54.4 mm): 10 mm | New Lesions [2, 19]: No | Percentage of overall tumor reduction [2, 19]: −100% | Tumor Response by RECIST 1.1 [2, 19]: Complete Response | Peritoneum [2, 19]: 0 mm | Target Lesions ([2]; subject #3, Follow-up 5 (November 2021), baseline 36.6 mm): 0 mm | Target Lesions Sum ([2]; subject #3, Follow-up 5 (November 2021), baseline 54.4 mm): 0 mm | clinical activity ([2]; subjects with recurrent or advanced USC, Examples 1-3): demonstrated clinical activity
